We go through six compounds from patent US20060142247A1, “Tricyclic heterocycles” (priority 2004, published 2006).

In this assay the target is T1, Aurora A (Homo sapiens, UniProt O14965).
T1 construct: C-terminally Histidine4 (His4)-tagged Aurora A full-length protein; His4 (C)
T1 sequence (O14965 1-403): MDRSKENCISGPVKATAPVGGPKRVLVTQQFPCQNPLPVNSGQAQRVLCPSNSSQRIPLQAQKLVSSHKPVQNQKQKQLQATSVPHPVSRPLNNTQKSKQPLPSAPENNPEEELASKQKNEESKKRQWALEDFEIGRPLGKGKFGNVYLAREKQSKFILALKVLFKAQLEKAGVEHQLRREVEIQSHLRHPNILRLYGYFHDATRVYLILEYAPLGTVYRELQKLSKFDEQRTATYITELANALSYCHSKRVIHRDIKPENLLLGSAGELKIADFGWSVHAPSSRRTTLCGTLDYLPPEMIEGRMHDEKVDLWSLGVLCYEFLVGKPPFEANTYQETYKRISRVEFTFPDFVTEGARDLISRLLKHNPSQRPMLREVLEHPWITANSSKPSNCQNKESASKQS
In words: IC50 determination for inhibitors of Aurora A (96 MTP-ELISA). It is filed as biochemical. Conditions: His4-tagged full-length Aurora A 250 ng/ml, PKB-GSK2 200 nM, ATP 4 μM, 90 min room temperature, read-out: IC50 Aurora A kinase inhibition. The gist of the method: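 ELISA read-out: after EDTA stop, phospho-GSK3-alpha (Ser 21) Mab and HRP-linked anti-mouse IgG detected with ABTS at 405/492 nm. The kinase step used His4-tagged full-length Aurora A, 250 ng/ml, 200 nM biotin peptide, ATP 4 μM, pH 7.8, 90 min at RT. Compounds tested at eight concentrations, 100 μM down to 0.00128 μM, for curve-fit IC50.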
(In general: In an ELISA, binding on a coated surface is turned into a signal by an enzyme label.)

By IC50 is commonly meant the concentration needed to halve the response being measured. On to `CC1(C)C(=O)N(CCCN2CCCCC2)c2cc3[nH]c(-c4n[nH]c5ccccc45)nc3cc21` [Example 19, 2-(1H-Indazol-3-yl)-7,7-dimethyl-5-(3-piperidin-1-yl-propyl)-5,7-dihydro-3H-imidazo[4,5-f]indol-6-one], for which the IC50 is 1 to 100 nM.

As for `CC1(C)C(=O)N(CC(N)=O)c2cc3[nH]c(-c4n[nH]c5ccccc45)nc3cc21` [Example 37, 2-[2-(1H-Indazol-3-yl)-7,7-dimethyl-6-oxo-6,7-dihydro-3H-imidazo[4,5-f]indol-5-yl]-acetamide], the IC50 is 1 to 100 nM.

With `CC1(C)C(=O)Nc2cc3[nH]c(-c4n[nH]c5ccccc45)nc3cc21` [Example 8, 2-(1H-indazol-3-yl)-7,7-dimethyl-5,7-dihydro-3H-imidazo[4,5-f]indol-6-one], the IC50 lay within 1 to 100 nM.

On to `CC1(C)C(=O)N(CC(=O)O)c2cc3[nH]c(-c4n[nH]c5ccccc45)nc3cc21` [Example 36, [2-(1H-Indazol-3-yl)-7,7-dimethyl-6-oxo-6,7-dihydro-3H-imidazo[4,5-f]indol-5-yl]-acetic acid], for which the IC50 was in the range of 1 to 100 nM.

Take `CCC1C(=O)Nc2cc3nc(-c4[nH]nc5ccccc45)[nH]c3cc21` (stereo not drawn) [Example 13, 7-Ethyl-2-(1H-indazol-3-yl)-5,7-dihydro-3H-imidazo[4,5-f]indol-6-one]: the IC50 is 100 to 250 nM.

As for `CC1(C)C(=O)N(CCN)c2cc3[nH]c(-c4n[nH]c5ccccc45)nc3cc21` [Example 52, 5-(2-Amino-ethyl)-2-(1H-indazol-3-yl)-7,7-dimethyl-5,7-dihydro-3H-imidazo[4,5-f]indol-6-one], the IC50 was 1 to 100 nM.
